US11702404B2, “GLP-1R modulating compounds” (priority 2019, dated 2023)
Like-named read-outs stand apart in the source and are kept apart here.

Columns and labels:
[1] = Microsomal stability, human liver microsomes (predicted hepatic clearance); details: predicted from in vitro microsomal stability data
[2] = molecular target: GLP-1R (Homo sapiens, UniProt P43220); experiment: GLP-1R activation: cAMP increase in CHO cells stably expressing GLP-1R; type: cell-based
[3] = cAMP increase, CHO cells stably expressing GLP-1R, 10 point dose response, 30 minutes incubation, read-out: EC50

Sequence of GLP-1R (P43220 24-463): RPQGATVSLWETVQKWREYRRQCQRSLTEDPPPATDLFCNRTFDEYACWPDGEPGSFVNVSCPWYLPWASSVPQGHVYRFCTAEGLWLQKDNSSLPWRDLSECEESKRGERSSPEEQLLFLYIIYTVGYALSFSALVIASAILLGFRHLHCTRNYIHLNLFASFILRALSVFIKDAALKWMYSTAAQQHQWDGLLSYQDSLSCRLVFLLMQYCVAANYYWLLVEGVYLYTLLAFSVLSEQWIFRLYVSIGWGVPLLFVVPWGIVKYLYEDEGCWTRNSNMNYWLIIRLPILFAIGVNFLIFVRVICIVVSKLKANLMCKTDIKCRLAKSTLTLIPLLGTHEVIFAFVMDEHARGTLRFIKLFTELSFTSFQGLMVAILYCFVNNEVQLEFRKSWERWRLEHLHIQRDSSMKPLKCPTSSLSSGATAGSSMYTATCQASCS

Row | SMILES | Predicted Hepatic Clearance (Pred. Cl.) [1] [mL/min/kg] | EC50 [2, 3] [nM] | EC50 ([2]; read-out: EC50) [nM] | EC50 ([2]; EC50 (nM)) [nM]
1 | COCCn1c(Cc2cc(F)c(-c3cccc(OCc4ccc(Cl)cn4)n3)cc2F)nc2ccc(C(=O)O)cc21 [Example 869] | 6.5 | 6.28 |  | 
2 | N#CCC1(Cn2c(Cc3ccc(-c4ccc(F)c(OCc5ccc(C#N)cc5F)n4)cc3F)nc3ccc(C(=O)O)cc32)CC1 [Example 162, 2-(4-(6-((4-cyano-2-fluorobenzyl)oxy)-5-fluoropyridin-2-yl)-2-fluorobenzyl)-1-((1-(cyanomethyl)cyclopropyl)methyl)-1H-benzo[d]imidazole-6-carboxylic acid] | <1.83 | 0.17 |  | 
3 | N#Cc1ccc(COc2nccc(-c3cc(F)c(Cc4nc5ccc(C(=O)O)cc5n4CC4(CF)CC4)c(F)c3)n2)c(F)c1 [Example 317, 2-(4-(2-((4-cyano-2-fluorobenzyl)oxy)pyrimidin-4-yl)-2,6-difluorobenzyl)-1-((1-(fluoromethyl)cyclopropyl)methyl)-1H-benzo[d]imidazole-6-carboxylic acid] | 2.67 | 1.05 |  | 
4 | N#Cc1ccc(COc2cccc(-c3cc(F)c(Cc4nc5ccc(C(=O)O)cc5n4[C@H]4COC[C@H]4O)cc3F)n2)c(F)c1 [Example 613] | 6.5 | 0.54 |  | 
5 | O=C(O)c1ccc2nc(Cc3cc(F)c(-c4ccnc(OCc5ccc(Cl)cc5F)n4)cc3F)n(CC3(CF)CC3)c2n1 [Example 120, 2-(4-(2-((4-chloro-2-fluorobenzyl)oxy)pyrimidin-4-yl)-2,5-difluorobenzyl)-3-((1-(fluoromethyl)cyclopropyl)methyl)-3H-imidazo[4,5-b]pyridine-5-carboxylic acid] | <1.83 | 1.24 |  | 
6 | N#Cc1cc(F)c(COc2ccnc(-c3cc(F)c(Cc4nc5ccc(C(=O)O)cc5n4C[C@@H]4CCO4)cc3F)n2)cc1F [Example 755] | 9.83 | 0.42 |  | 
7 | COCCn1c(Cc2c(F)cc(-c3ncc(F)c(OCc4ccc(C#N)cc4F)n3)c(F)c2F)nc2ccc(C(=O)O)cc21 [Example 124, 2-(4-(4-((4-cyano-2-fluorobenzyl)oxy)-5-fluoropyrimidin-2-yl)-2,3,6-trifluorobenzyl)-1-(2-methoxyethyl)-1H-benzo[d]imidazole-6-carboxylic acid] | 3.17 | 0.67 |  | 
8 | N#Cc1ccc(COc2cccc(-c3ccc(Cc4nc5ccc(C(=O)O)cc5n4CC4(n5ccnn5)CC4)cc3)n2)c(F)c1 [Example 461, 1-((1-(1H-1,2,3-triazol-1-yl)cyclopropyl)methyl)-2-(4-(6-((4-cyano-2-fluorobenzyl)oxy)pyridin-2-yl)benzyl)-1H-benzo[d]imidazole-6-carboxylic acid] | 7.17 | 2.47 |  | 
9 | N#Cc1ccc(COc2cccc(-c3cc(F)c(Cc4nc5ccc(C(=O)O)cc5n4CC4CC5CCN4CC5)cc3F)n2)c(F)c1 (stereo not drawn) [Example 740] | 2.17 |  | 1160 | 
10 | COCCn1c(Cc2ccc(-c3cccc(OCc4ccc(C#N)cc4F)n3)c(C#N)c2)nc2ccc(C(=O)O)cc21 [Example 526, 2-(3-cyano-4-(6-((4-cyano-2-fluorobenzyl)oxy)pyridin-2-yl)benzyl)-1-(2-methoxyethyl)-1H-benzo[d]imidazole-6-carboxylic acid] | 7.5 |  |  | 70.9
11 | N#Cc1ccc(COc2cccc(-c3ccc(Cc4nc5ccc(C(=O)O)cc5n4Cc4ccccc4)c(F)c3)n2)c(F)c1 [Example 531, 1-benzyl-2-(4-(6-((4-cyano-2-fluorobenzyl)oxy)pyridin-2-yl)-2-fluorobenzyl)-1H-benzo[d]imidazole-6-carboxylic acid] | 2.25 | 12.8 |  | 
12 | COCCn1c(Cc2ccc(-c3cccc(OCc4ccc(C#N)cc4F)n3)c(Br)c2)nc2ccc(C(=O)O)cc21 [Example 261, 2-(3-bromo-4-(6-((4-cyano-2-fluorobenzyl)oxy)pyridin-2-yl)benzyl)-1-(2-methoxyethyl)-1H-benzo[d]imidazole-6-carboxylic acid] | 8 | 184 |  | 
13 | COCCn1c(C(C)c2ccc(-c3cccc(OCc4ccc(C#N)cc4F)n3)cc2)nc2ccc(C(=O)O)cc21 (single isomer, unassigned) [Example 439, 2-(1-(4-(6-((4-cyano-2-fluorobenzyl)oxy)pyridin-2-yl)phenyl)ethyl)-1-(2-methoxyethyl)-1H-benzo[d]imidazole-6-carboxylic acid] | 6 |  |  | 
14 | CC(=O)N1CCC[C@H]1Cn1c(Cc2ccc(-c3ccc(F)c(OCc4ccc(Cl)cc4F)c3)cc2F)nc2ccc(C(=O)O)cc21 [Example 482, 3-[[(2S)-1-acetylpyrrolidin-2-yl]methyl]-2-[[4-[3-[(4-chloro-2-fluoro-phenyl)methoxy]-4-fluoro-phenyl]-2-fluoro-phenyl]methyl]benzimidazole-5-carboxylic acid] | 4.83 |  |  | 
15 | COCCn1c(Cc2ccc(-c3cccc(OCc4ccccc4N)n3)cc2F)nc2ccc(C(=O)O)cc21 [Example 498, 2-(4-(6-((2-aminobenzyl)oxy)pyridin-2-yl)-2-fluorobenzyl)-1-(2-methoxyethyl)-1H-benzo[d]imidazole-6-carboxylic acid] | <1.83 |  |  | 
16 | N#Cc1ccc(COc2cccc(-c3ccc(Cc4nc5ccc(C(=O)O)cc5n4CC4CCO4)c(F)c3)n2)c(F)c1 (stereo not drawn) [Example 15, 2-(4-(6-((4-cyano-2-fluorobenzyl)oxy)pyridin-2-yl)-2-fluorobenzyl)-1-(oxetan-2-ylmethyl)-1H-benzo[d]imidazole-6-carboxylic acid] | 3.3 |  |  | 
17 | COCCn1c(Cc2ccc(-c3nnc(OCc4ccc(C#N)cc4F)s3)cc2F)nc2ccc(C(=O)O)cc21 [Example 213, 2-(4-(5-((4-cyano-2-fluorobenzyl)oxy)-1,3,4-thiadiazol-2-yl)-2-fluorobenzyl)-1-(2-methoxyethyl)-1H-benzo[d]imidazole-carboxylic acid] | 9.17 |  |  | 
18 | N#Cc1ccc(COc2cccc(-c3ccc(Cc4nc5ccc(C(=O)O)cc5n4CC4CCO4)c(F)c3)n2)c(F)c1 (single isomer, unassigned) [Example 68, 2-(4-(6-((4-Cyano-2-fluorobenzyl)oxy)pyridin-2-yl)-2-fluorobenzyl)-1-(oxetan-2-ylmethyl)-1H-benzo[d]imidazole-6-carboxylic acid] | <1.83 |  |  | 
19 | COCCn1c(Cc2c(F)cc(-c3cnccc3OCc3ccc(C#N)cc3F)cc2F)nc2ccc(C(=O)O)cc21 [Example 191, 2-(4-(4-((4-cyano-2-fluorobenzyl)oxy)pyridin-3-yl)-2,6-difluorobenzyl)-1-(2-methoxyethyl)-1H-benzo[d]imidazole-carboxylic acid] | 7.83 |  |  | 
20 | CC(=O)N1CCC[C@H]1Cn1c(Cc2ccc(-c3ccc(F)c(OCc4ccc(Cl)cc4F)c3)cc2F)nc2ccc(C(=O)O)cc21 [Example 464, (S)-1-((1-acetylpyrrolidin-2-yl)methyl)-2-((3′-((4-chloro-2-fluorobenzyl)oxy)-3,4′-difluoro-[1,1′-biphenyl]-4-yl)methyl)-1H-benzo[d]imidazole-6-carboxylic acid] | 4 |  |  | 
21 | N#Cc1ccc(COc2cccc(-c3ccc(Cc4nc5ccc(C(=O)O)cc5n4CC4CCO4)c(F)c3)n2)c(F)c1 (single isomer, unassigned) [Example 67, 2-(4-(6-((4-Cyano-2-fluorobenzyl)oxy)pyridin-2-yl)-2-fluorobenzyl)-1-(oxetan-2-ylmethyl)-1H-benzo[d]imidazole-6-carboxylic acid] | 5.17 |  |  | 
22 | COCCn1c(Cc2ccc(-c3cccc(OCc4ccc(C#N)cc4F)n3)cc2-c2cccnc2)nc2ccc(C(=O)O)cc21 [Example 185, 2-(4-(6-((4-cyano-2-fluorobenzyl)oxy)pyridin-2-yl)-2-(pyridin-3-yl)benzyl)-1-(2-methoxyethyl)-1H-benzo[d]imidazole-6-carboxylic acid] | 12 |  |  | 
23 | COCCn1c(Cc2ccc(-c3cc(C#Cc4ccccc4)cc(OCc4ccc(C#N)cc4F)n3)cc2F)nc2ccc(C(=O)O)cc21 [Example 100, 2-(4-(6-((4-cyano-2-fluorobenzyl)oxy)-4-(phenylethynyl)pyridin-2-yl)-2-fluorobenzyl)-1-(2-methoxyethyl)-1H-benzo[d]imidazole-6-carboxylic acid] | <1.83 |  |  | 
24 | COCCn1c(Cn2cc(-c3cccc(OCc4ccc(C#N)cc4F)n3)cn2)nc2ccc(C(=O)O)cc21 [Example 282, 2-((4-(6-((4-cyano-2-fluorobenzyl)oxy)pyridin-2-yl)-1H-pyrazol-1-yl)methyl)-1-(2-methoxyethyl)-1H-benzo[d]imidazole-6-carboxylic acid] | 8.17 |  |  | 
25 | COCCn1c(Cc2ccc(-c3cccc(OCn4ccc(C(=O)O)cc4=O)n3)cc2F)nc2ccc(C(=O)O)cc21 [Example 503, 2-(4-(6-((4-carboxy-2-oxopyridin-1(2H)-yl)methoxy)pyridin-2-yl)-2-fluorobenzyl)-1-(2-methoxyethyl)-1H-benzo[d]imidazole-6-carboxylic acid] | <1.83 |  |  | 
26 | COCCn1c(Cc2ccc(-c3cccc(OCc4ccc5cn[nH]c5c4)n3)cc2F)nc2ccc(C(=O)O)cc21 [Example 463, 2-(4-(6-((1H-indazol-6-yl)methoxy)pyridin-2-yl)-2-fluorobenzyl)-1-(2-methoxyethyl)-1H-benzo[d]imidazole-6-carboxylic acid] | 2.33 |  |  | 
27 | COCCn1c(Cc2ccc(-c3cccc(OCc4ccc(C(F)(F)F)nc4N)n3)cc2F)nc2ccc(C(=O)O)cc21 [Example 595, 2-(4-(6-((2-amino-6-(trifluoromethyl)pyridin-3-yl)methoxy)pyridin-2-yl)-2-fluorobenzyl)-1-(2-methoxyethyl)-1H-benzo[d]imidazole-6-carboxylic acid] | 6.17 |  |  | 
